Reference: patent US20120101167A1, “Treatment of ocular and cerebral ischemia” (priority 2010, published 2012)

Legend:
[1] = tested on: glaucomatous monkeys; assay: IOP and PBF responses in glaucomatous monkeys to a single topical unilateral application; assay type: in vivo, monkey; details: single topical unilateral 0.05 mg, four glaucomatous monkeys
Description: (§1) 1. The Intraocular pressure and pulse form. The Langham pneumatic digitized tonometer was used to make continuous recordings of the intraocular pressure and its pulsatile character. This recording system provides the steady state IOP and the form of the IOP pulse with an accuracy equal to a manometric recording. The pulsatile ocular blood flow is evaluated from the amplitude of the individual pulses using the known pressure/volume relation of living human eyes. Langham, M. E., Farrell, R. A., O'Brien V., Silver, D. M., Non-Invasive Measurement of Pulsatile Ocular Blood Flow in the Human Eye (Eds., Lambrou G. N., Greve E.) pp. 93-99; Kugler and Ghedini, Amsterdam (1989).

[2] = tested on: conscious rabbits; assay: Time course of IOP and ocular pulsatile blood flow in conscious rabbits after single topical application; assay type: in vivo, rabbit; details: six conscious rabbits; for Intraocular Pressure (IOP), Treated / Pulsatile Blood flow, Treated: treated eye, single topical 0.025% aqueous solution pH 7.40; for Intraocular Pressure (IOP), Difference / Pulsatile Blood flow, Difference: treated minus control eye, single topical 0.025% solution
Description: as §1

[3] = tested on: healthy human subjects; assay: Steady state IOP and pulsatile blood flow in healthy human subjects given repeated topical unilateral applications; assay type: in vivo; details: five healthy human subjects; for Intraocular Pressure (IOP), Treated / Pulsatile Blood flow, Treated: treated eye, 30 μl 0.025% solution topical unilateral at 0, 12, ... 96 hr; for Intraocular Pressure (IOP), Difference / Pulsatile Blood flow, Difference: treated minus control eye, 0.025% solution every 12 hr
Description: as §1

[4] = tested on: glaucoma patients; assay: IOP, pulsatile blood flow, visual performance, relative scotomas and stability of differential light sensitivity in glaucoma patients under long-term topical treatment; assay type: in vivo, human
Excerpt: Elevated IOP is a risk factor associated with the development of glaucoma but it is not the disease itself. The recent recognition that a large percentage of glaucoma patients never experience elevated IOP has increased the possibility that the ocular hypotensive drug has the undesirable action of decreasing ocular blood flow. This possibility has been supported by numerous studies and confirmed in the prolonged longitudinal studies on individual glaucoma patents (Table 1). With increased ocular blood flow, the vision improved whilst with a drug having equal ocular hypotensive action, but causing decreased ocular blood flow run vision worsened. […] The Intraocular pressure and pulse form. The […] pneumatic digitized tonometer was used to make continuous recordings of the intraocular pressure and its pulsatile character. This recording system provides the steady state IOP and the form of the IOP pulse with an accuracy equal to a manometric recording. The pulsatile ocular blood flow is evaluated from the amplitude of the individual pulses using the known pressure/volume relation of living human eyes. […]'Brien V., Silver, D. M., Non-Invasive Measurement of Pulsatile Ocular Blood Flow in the Human […] and […], Amsterdam (1989).

[5] = difference clonidine treatment minus timolol treatment, five glaucoma patients
[6] = five glaucoma patients, topical 0.25% clonidine b.i.d., years 6, 7 and 8 (after timolol)
[7] = difference timolol treatment minus prior, five glaucoma patients
[8] = five glaucoma patients, topical timolol 0.25-0.50% b.i.d., years 3, 4 and 5

Structure (SMILES): CN[C@H](C)[C@@H](O)c1ccc(OC(=O)C(C)(C)C)c(OC(=O)C(C)(C)C)c1 (single isomer, unassigned) [(+) erythro isomer of DPαMeEp, reference compound]
- Intraocular Pressure (IOP), Treated ([1]; Table 5, treated eye, 0 hr): 36.8 ± 1.94 mmHg
- Pulsatile Blood flow, Treated ([1]; Table 5, treated eye, 0 hr): 564 ± 16 µL/min
- Intraocular Pressure (IOP), Treated ([1]; Table 5, treated eye, 1 hr): 36.3 ± 3.17 mmHg
- Pulsatile Blood flow, Treated ([1]; Table 5, treated eye, 1 hr): 555 ± 26 µL/min
- Intraocular Pressure (IOP), Treated ([1]; Table 5, treated eye, 3 hr): 35.0 ± 2.28 mmHg
- Pulsatile Blood flow, Treated ([1]; Table 5, treated eye, 3 hr): 575 ± 22 µL/min
- Intraocular Pressure (IOP), Treated ([1]; Table 5, treated eye, 6 hr): 36.8 ± 3.31 mmHg
- Pulsatile Blood flow, Treated ([1]; Table 5, treated eye, 6 hr): 564 ± 23 µL/min
- Intraocular Pressure (IOP), Treated ([1]; Table 5, treated eye, 24 hr): 34.6 ± 2.76 mmHg
- Pulsatile Blood flow, Treated ([1]; Table 5, treated eye, 24 hr): 549 ± 27 µL/min

Structure (SMILES): CN[C@@H](C)[C@H](O)c1ccc(OC(=O)C(C)(C)C)c(OC(=O)C(C)(C)C)c1 (single isomer, unassigned) [(−) erythro isomer of DPαMeEp, dipivalyl α MeEp]
- Intraocular Pressure (IOP), Treated ([2]; 0 hr): 19.4 ± 0.7 mmHg
- Pulsatile Blood flow, Treated ([2]; 0 hr): 651 ± 28 µL/min
- Intraocular Pressure (IOP), Treated ([2]; 1 hr): 13.0 ± 0.5 mmHg
- Pulsatile Blood flow, Treated ([2]; 1 hr): 880 ± 32 µL/min
- Intraocular Pressure (IOP), Treated ([2]; 3 hr): 12.8 ± 0.4 mmHg
- Pulsatile Blood flow, Treated ([2]; 3 hr): 957 ± 33 µL/min
- Intraocular Pressure (IOP), Treated ([2]; 5 hr): 13.8 ± 0.4 mmHg
- Pulsatile Blood flow, Treated ([2]; 5 hr): 963 ± 30 µL/min
- Intraocular Pressure (IOP), Treated ([2]; 12 hr): 15.6 ± 0.6 mmHg
- Pulsatile Blood flow, Treated ([2]; 12 hr): 924 ± 29 µL/min
- Intraocular Pressure (IOP), Treated ([2]; 24 hr): 19.7 ± 0.7 mmHg
- Pulsatile Blood flow, Treated ([2]; 24 hr): 682 ± 41 µL/min
- Intraocular Pressure (IOP), Difference ([2]; 0 hr): −0.1 ± 0.1 mmHg
- Pulsatile Blood flow, Difference ([2]; 0 hr): 3 ± 3 µL/min
- Intraocular Pressure (IOP), Difference ([2]; 1 hr): −6.4 ± 0.3 mmHg
- Pulsatile Blood flow, Difference ([2]; 1 hr): 255 ± 24 µL/min
- Intraocular Pressure (IOP), Difference ([2]; 3 hr): −6.5 ± 0.4 mmHg
- Pulsatile Blood flow, Difference ([2]; 3 hr): 332 ± 29 µL/min
- Intraocular Pressure (IOP), Difference ([2]; 5 hr): −5.3 ± 0.4 mmHg
- Pulsatile Blood flow, Difference ([2]; 5 hr): 328 ± 24 µL/min
- Intraocular Pressure (IOP), Difference ([2]; 12 hr): −3.9 ± 0.3 mmHg
- Pulsatile Blood flow, Difference ([2]; 12 hr): 290 ± 31 µL/min
- Intraocular Pressure (IOP), Difference ([2]; 24 hr): 0 ± 0 mmHg
- Pulsatile Blood flow, Difference ([2]; 24 hr): 10 ± 4 µL/min
- Intraocular Pressure (IOP), Treated ([3]; 0 hr): 15.5 ± 0.5 mmHg
- Pulsatile Blood flow, Treated ([3]; 0 hr): 675 ± 35 µL/min
- Intraocular Pressure (IOP), Treated ([3]; 2 hr): 12.0 ± 0.7 mmHg
- Pulsatile Blood flow, Treated ([3]; 2 hr): 818 ± 30 µL/min
- Intraocular Pressure (IOP), Treated ([3]; 6 hr): 13.2 ± 9.2 mmHg
- Pulsatile Blood flow, Treated ([3]; 6 hr): 802 ± 17 µL/min
- Intraocular Pressure (IOP), Treated ([3]; 12 hr): 14.0 ± 0.4 mmHg
- Pulsatile Blood flow, Treated ([3]; 12 hr): 780 ± 15 µL/min
- Intraocular Pressure (IOP), Treated ([3]; 24 hr): 15.0 ± 0.4 mmHg
- Pulsatile Blood flow, Treated ([3]; 24 hr): 758 ± 30 µL/min
- Intraocular Pressure (IOP), Treated ([3]; 28 hr): 12.4 ± 0.5 mmHg
- Pulsatile Blood flow, Treated ([3]; 28 hr): 790 ± 34 µL/min
- Intraocular Pressure (IOP), Treated ([3]; 52 hr): 12.8 ± 0.4 mmHg
- Pulsatile Blood flow, Treated ([3]; 52 hr): 764 ± 14 µL/min
- Intraocular Pressure (IOP), Treated ([3]; 78 hr): 11.8 ± 0.5 mmHg
- Pulsatile Blood flow, Treated ([3]; 78 hr): 832 ± 24 µL/min
- Intraocular Pressure (IOP), Treated ([3]; 100 hr): 12.7 ± 0.4 mmHg
- Pulsatile Blood flow, Treated ([3]; 100 hr): 812 ± 15 µL/min
- Intraocular Pressure (IOP), Difference ([3]; 0 hr): 0 ± 0.1 mmHg
- Pulsatile Blood flow, Difference ([3]; 0 hr): 4 ± 6 µL/min
- Intraocular Pressure (IOP), Difference ([3]; 2 hr): −3.4 ± 3.4 mmHg
- Pulsatile Blood flow, Difference ([3]; 2 hr): 127 ± 27 µL/min
- Intraocular Pressure (IOP), Difference ([3]; 6 hr): −2.6 ± 2.6 mmHg
- Pulsatile Blood flow, Difference ([3]; 6 hr): 131 ± 14 µL/min
- Intraocular Pressure (IOP), Difference ([3]; 12 hr): −1.8 ± 1.1 mmHg
- Pulsatile Blood flow, Difference ([3]; 12 hr): 104 ± 12 µL/min
- Intraocular Pressure (IOP), Difference ([3]; 24 hr): −0.6 ± 0.3 mmHg
- Pulsatile Blood flow, Difference ([3]; 24 hr): 82 ± 7 µL/min
- Intraocular Pressure (IOP), Difference ([3]; 28 hr): 2.9 ± 0.4 mmHg
- Pulsatile Blood flow, Difference ([3]; 28 hr): 132 ± 19 µL/min
- Intraocular Pressure (IOP), Difference ([3]; 52 hr): −2.7 ± 0.6 mmHg
- Pulsatile Blood flow, Difference ([3]; 52 hr): 110 ± 24 µL/min
- Intraocular Pressure (IOP), Difference ([3]; 78 hr): −3.7 ± 0.4 mmHg
- Pulsatile Blood flow, Difference ([3]; 78 hr): 156 ± 8 µL/min
- Intraocular Pressure (IOP), Difference ([3]; 100 hr): 3.3 ± 0.4 mmHg
- Pulsatile Blood flow, Difference ([3]; 100 hr): 138 ± 8.5 µL/min
- Intraocular Pressure (IOP), Treated ([1]; Table 4, treated glaucomatous eye, 0 hr): 33.4 ± 1.94 mmHg
- Intraocular Pressure (IOP), Treated ([1]; Table 4, treated glaucomatous eye, 1 hr): 26.3 ± 3.17 mmHg
- Intraocular Pressure (IOP), Treated ([1]; Table 4, treated glaucomatous eye, 3 hr): 21.7 ± 3.77 mmHg
- Intraocular Pressure (IOP), Treated ([1]; Table 4, treated glaucomatous eye, 8 hr): 21.9 ± 3.31 mmHg
- Intraocular Pressure (IOP), Treated ([1]; Table 4, treated glaucomatous eye, 10 hr): 22.1 ± 2.76 mmHg
- Intraocular Pressure (IOP), Treated ([1]; Table 4, treated glaucomatous eye, 12 hr): 21.8 ± 2.61 mmHg
- Intraocular Pressure (IOP), Treated ([1]; Table 4, treated glaucomatous eye, 24 hr): 24.6 ± 2.37 mmHg
- Intraocular Pressure (IOP), Treated ([1]; Table 4, treated glaucomatous eye, 26 hr): 26.3 ± 2.16 mmHg
- Intraocular Pressure (IOP), Treated ([1]; Table 4, treated glaucomatous eye, 28 hr): 25.0 ± 2.09 mmHg
- Intraocular Pressure (IOP), Treated ([1]; Table 4, treated glaucomatous eye, 30 hr): 25.0 ± 2.28 mmHg
- Intraocular Pressure (IOP), Treated ([1]; Table 4, treated glaucomatous eye, 36 hr): 27.3 ± 2.09 mmHg

Structure (SMILES): Clc1cccc(Cl)c1N=C1NCCN1 [Clonidine, clonidine]
- IOP, Clon-Timolol [4, 5]: −0.8 ± 0.5 mmHg
- PBF, Clon-Timolol [4, 5]: 192 ± 71 µL/min
- Vis. P. (visual performance), Clon-Timolol [4, 5]: 31 ± 9
- IOP [4, 6]: 20.0 ± 1.0 mmHg
- PBF [4, 6]: 557 ± 30 µL/min
- Rel. Scot (relative scotomas) [4, 6]: 3
- Vis. P. (visual performance) [4, 6]: 564 ± 30
- Stability of the differential light sensitivity, Clon-Timolol ([4]; number of the five glaucoma patients, clonidine treatment versus timolol treatment): 5 improved
- Stability of the differential light sensitivity ([4]; number of the five glaucoma patients, topical 0.25% clonidine b.i.d., years 6, 7 and 8): 5 improved

Structure (SMILES): CC(C)(C)NC[C@H](O)COc1nsnc1N1CCOCC1 [Timolol, timolol]
- IOP, Tim-Prior [4, 7]: −3.1 ± 0.6 mmHg
- PBF, Tim-Prior [4, 7]: -177 ± 33 µL/min
- Vis. P. (visual performance), Tim-Prior [4, 7]: −116 ± 2
- IOP [4, 8]: 20.8 ± 0.6 mmHg
- PBF [4, 8]: 365 ± 20 µL/min
- Rel. Scot (relative scotomas) [4, 8]: 3
- Vis. P. (visual performance) [4, 8]: 533 ± 20
- Stability of the differential light sensitivity, Tim-Prior ([4]; number of the five glaucoma patients, timolol treatment versus prior): 5 decreased
- Stability of the differential light sensitivity ([4]; number of the five glaucoma patients, topical timolol 0.25-0.50% b.i.d., years 3, 4 and 5): 5 decreased
